In the NIST ThermoML archive (doi:10.1016/j.jct.2016.08.004):

Experiment: mn = molality of the nth substance listed, in mol/kg
Conditions: 101 kPa, Liquid; for viscosity: Capillary tube (Ostwald / Ubbelohde) method; for mass density: Vibrating tube method

Cc1ncc(CO)c(CO)c1O.Cl [5-hydroxy-6-methyl-3,4-pyridinedimethanol hydrochloride] + O
Conditions	mass density, 288.15 K [kg/m3]	mass density, 298.15 K [kg/m3]	mass density, 308.15 K [kg/m3]	mass density, 318.15 K [kg/m3]	viscosity, 288.15 K [mPa·s]	viscosity, 298.15 K [mPa·s]	viscosity, 308.15 K [mPa·s]	viscosity, 318.15 K [mPa·s]
m1 = 0.0202	1000.32	998.28	995.25	991.43	1.145	0.8984	0.7266	0.6009
m1 = 0.0365	1001.26	999.22	996.18	992.35	1.151	0.9043	0.7312	0.6048
m1 = 0.0529	1002.19	1000.15	997.09	993.26	1.157	0.9103	0.7358	0.6087
m1 = 0.0695	1003.11	1001.07	997.99	994.16	1.163	0.9163	0.7404	0.6127
m1 = 0.0863	1003.98	1001.99	998.89	995.06	1.169	0.9224	0.7451	0.6168
m1 = 0.1032	1004.86	1002.9	999.78	995.96	1.175	0.9286	0.7498	0.6209
